Assay results published in PubChem BioAssay AID1259407 (Chemical Carcinogenesis Research Information System (CCRIS), 2018).
Active and inactive are the calls of the source. No rule for the calls is given here.

Test system: CCRIS mutagenicity, Ames/micronucleus/aberration tests
Experiment: CCRIS mutagenicity studies
Details: Method: STANDARD PLATE

For `CCOc1ccc(NC(C)=O)cc1N`, the mutagenic call (Test System: AMES SALMONELLA TYPHIMURIUM, Strain/Indicator: TA98, Metabolic Activation: HAMSTER, LIVER, S-9, AROCLOR 1254) was “active; positive”, the mutagenic call (Test System: AMES SALMONELLA TYPHIMURIUM, Strain/Indicator: TA98, Metabolic Activation: HAMSTER, LIVER, S-9) was “active; positive” and the mutagenic call (Test System: AMES SALMONELLA TYPHIMURIUM, Strain/Indicator: TA98, Metabolic Activation: MOUSE, LIVER, S-9, AROCLOR 1254) was “active; positive”. For the same compound, the mutagenic call (Test System: AMES SALMONELLA TYPHIMURIUM, Strain/Indicator: TA98, Metabolic Activation: MOUSE, LIVER, S-9) was “active; positive”, the mutagenic call (Test System: AMES SALMONELLA TYPHIMURIUM, Strain/Indicator: TA98, Metabolic Activation: RAT, LIVER, S-9, AROCLOR 1254) was “active; positive” and the mutagenic call (Test System: AMES SALMONELLA TYPHIMURIUM, Strain/Indicator: TA98, Metabolic Activation: RAT, LIVER, S-9) was “active; positive”. The mutagenic call (Test System: AMES SALMONELLA TYPHIMURIUM, Strain/Indicator: TA100, Metabolic Activation: HAMSTER, LIVER, S-9, AROCLOR 1254) was “active; positive”, the mutagenic call (Test System: AMES SALMONELLA TYPHIMURIUM, Strain/Indicator: TA100, Metabolic Activation: MOUSE, LIVER, S-9, AROCLOR 1254) was “inactive; negative” and the mutagenic call (Test System: AMES SALMONELLA TYPHIMURIUM, Strain/Indicator: TA100, Metabolic Activation: MOUSE, LIVER, S-9) was “inactive; negative”. The mutagenic call (Test System: AMES SALMONELLA TYPHIMURIUM, Strain/Indicator: TA100, Metabolic Activation: NONE) was “inactive; negative”, the mutagenic call (Test System: AMES SALMONELLA TYPHIMURIUM, Strain/Indicator: TA100, Metabolic Activation: RAT, LIVER, S-9) was “inactive; negative” and the mutagenic call (Test System: AMES SALMONELLA TYPHIMURIUM, Strain/Indicator: TA1535, Metabolic Activation: HAMSTER, LIVER, S-9, AROCLOR 1254) was “inactive; negative”. The mutagenic call (Test System: AMES SALMONELLA TYPHIMURIUM, Strain/Indicator: TA1535, Metabolic Activation: HAMSTER, LIVER, S-9) was “inactive; negative”, the mutagenic call (Test System: AMES SALMONELLA TYPHIMURIUM, Strain/Indicator: TA1535, Metabolic Activation: MOUSE, LIVER, S-9, AROCLOR 1254) was “inactive; negative” and the mutagenic call (Test System: AMES SALMONELLA TYPHIMURIUM, Strain/Indicator: TA1535, Metabolic Activation: MOUSE, LIVER, S-9) was “inactive; negative”. For the same compound, the mutagenic call (Test System: AMES SALMONELLA TYPHIMURIUM, Strain/Indicator: TA1535, Metabolic Activation: NONE) was “inactive; negative”, the mutagenic call (Test System: AMES SALMONELLA TYPHIMURIUM, Strain/Indicator: TA1535, Metabolic Activation: RAT, LIVER, S-9, AROCLOR 1254) was “inactive; negative” and the mutagenic call (Test System: AMES SALMONELLA TYPHIMURIUM, Strain/Indicator: TA1535, Metabolic Activation: RAT, LIVER, S-9) was “inactive; negative”. For the same compound, the mutagenic call (Test System: AMES SALMONELLA TYPHIMURIUM, Strain/Indicator: TA1537, Metabolic Activation: HAMSTER, LIVER, S-9, AROCLOR 1254) was “active; positive”, the mutagenic call (Test System: AMES SALMONELLA TYPHIMURIUM, Strain/Indicator: TA1537, Metabolic Activation: HAMSTER, LIVER, S-9) was “active; positive” and the mutagenic call (Test System: AMES SALMONELLA TYPHIMURIUM, Strain/Indicator: TA1537, Metabolic Activation: MOUSE, LIVER, S-9, AROCLOR 1254) was “active; positive”. For the same compound, the mutagenic call (Test System: AMES SALMONELLA TYPHIMURIUM, Strain/Indicator: TA1537, Metabolic Activation: RAT, LIVER, S-9, AROCLOR 1254) was “active; positive”, the mutagenic call (Test System: AMES SALMONELLA TYPHIMURIUM, Strain/Indicator: TA1538, Metabolic Activation: HAMSTER, LIVER, S-9, AROCLOR 1254) was “active; positive” and the mutagenic call (Test System: AMES SALMONELLA TYPHIMURIUM, Strain/Indicator: TA1538, Metabolic Activation: HAMSTER, LIVER, S-9) was “active; positive”. The mutagenic call (Test System: AMES SALMONELLA TYPHIMURIUM, Strain/Indicator: TA1538, Metabolic Activation: MOUSE, LIVER, S-9, AROCLOR 1254) was “active; positive”, the mutagenic call (Test System: AMES SALMONELLA TYPHIMURIUM, Strain/Indicator: TA1538, Metabolic Activation: NONE) was “inactive; negative” and the mutagenic call (Test System: AMES SALMONELLA TYPHIMURIUM, Strain/Indicator: TA1538, Metabolic Activation: RAT, LIVER, S-9, AROCLOR 1254) was “active; positive”. For the same compound, the mutagenic call (Test System: AMES SALMONELLA TYPHIMURIUM, Strain/Indicator: TA1538, Metabolic Activation: RAT, LIVER, S-9) was “active; positive”, the mutagenic call (Test System: E. COLI, Strain/Indicator: WP2 UVRA, Metabolic Activation: HAMSTER, LIVER, S-9, AROCLOR 1254) was “inactive; negative” and the mutagenic call (Test System: E. COLI, Strain/Indicator: WP2 UVRA, Metabolic Activation: HAMSTER, LIVER, S-9) was “inactive; negative”. For the same compound, the mutagenic call (Test System: E. COLI, Strain/Indicator: WP2 UVRA, Metabolic Activation: MOUSE, LIVER, S-9, AROCLOR 1254) was “inactive; negative”, the mutagenic call (Test System: E. COLI, Strain/Indicator: WP2 UVRA, Metabolic Activation: MOUSE, LIVER, S-9) was “inactive; negative” and the mutagenic call (Test System: E. COLI, Strain/Indicator: WP2 UVRA, Metabolic Activation: NONE) was “inactive; negative”. For the same compound, the mutagenic call (Test System: E. COLI, Strain/Indicator: WP2 UVRA, Metabolic Activation: RAT, LIVER, S-9) was “inactive; negative”.
